Entries after “also recorded” stand apart in the source; their conditions may differ.
Key:
[1] = tested on: collagen-induced arthritis; assay: Collagen-Induced Arthritis (CIA) Study No. 2; assay type: in vivo, Lewis rats
Experimental: To further investigate the effect of the compounds described herein on inflammation biomarkers, a second CIA model was initiated. In this model, the groups were designated as group A (naïve), group B (model; vehicle-treated), group C (Compound 2 at 5 mg/kg QoD). The rats in groups B and C were immunized intradermally with bovine Type II collagen in IFA on day 0, and a booster injection was given on day 7. Compound 2 was orally administered to rats with CIA after the onset of arthritis (Day 11). CIA development was evaluated via macroscopic scoring and measurements of paw swelling. This was assessed every day for the first 5 days after sensitization (day 7), and then twice per week (Monday and Thursday) until Day 28 using the clinical scoring system described in Table 7 above. In addition, ELISAs for CD45, CRP, CCL2/MCP-1, RANKL, TNF-α, IL1-β, IL-6, IL-8, IL-15, IL-17, and measurements for cathepsin K and elastase were performed 4 days (Day 15 of the study) and 10 days (Day 21 of the study—peak for the disease) after compound treatment and at the very end of the study (Day 28) on all group animals. Additionally, on the last day of the study (Day 28), a few representative animals from each group were subjected to three-dimensional micro-tomodensitometry of calcaneus, and bone erosion was quantified.

[2] = tested on: IMQ-induced psoriasis; assay: Imiquimod (IMQ)-induced dermal inflammation/psoriasis model (Study 2); assay type: in vivo, BALB/c mice; conditions: Compound 2 2.5 mg/kg
Experimental: Forty (40) male BALB/c mice (Biological E Limited, Hyderabad (CPCSEA registration number: 36/99/CPCSEA)) were divided into four (4) groups consisting of ten (10) mice each. Animals were randomized based on their body weight. The groups were designated as Group-I (Nave), Group-II (IMQ; vehicle (PEG 400 and HPBCD)), Group-III (IMQ; Compound 2 (2.5 mg/kg)) and […] (IMQ; cyclophosphamide (10 mg/kg)).
A small area on the dorsum of each mouse was shaved, ensuring that these areas were of equal size/area. Psoriasis was induced in Groups II to IV by topical application of 50 mg of IMQ cream daily from Day 1 to Day 6 on the dorsum of the animals. On Day 1 and Day 2 of the study, four hours after topical application of IMQ, Compound 2 or positive control (cyclophosphamide) or vehicle were administered to animals in pertinent groups. Of note, animals in Group II and Group III were subjected to subcutaneous injections, whereas animals in Group IV received oral administration. The Compound 2, vehicle and cyclophosphamide treatment was terminated on Day 2. These groups of animals were maintained on daily IMQ treatments until Day 6. On Day 7, the psoriasis-induced animals were re-randomized into 3 groups consisting of 10 animals each based on Cumulative Disease Activity Index (CDAI). From Day 7 to Day 9, animals received vehicle or positive control or Compound 2. Of note, on these days animals were not treated with IMQ. From Day 10 to Day 14, the animals were treated alternatively with IMQ (Days 10, 12 and 14), or vehicle, positive control or Compound 2 (Days 11, 13).
All animals were observed daily for a period of […] for gross observations, body weight and feed and water intake. On Days 1 and 2, scorings of erythema, scaling, folding and thickening of skin were recorded 2 hours after administration of vehicle/positive control/test compounds, and on Days 3 to 14 scorings were recorded 4 hours after IMQ application, or administration of positive control, vehicle or Compound 2.
Vehicle was prepared by dissolving 40 mg of HPBCD in 70.0 mL of distilled water. Compound 2 was prepared by dissolving 3.59 mg in 0.5% PVP and 0.5% Pluronic. Cyclophosphamide was prepared by dissolving 500 mg of CMC in 100 mL distilled water.
The experimental results shown in Table 10 are expressed as mean±SEM. Data was assessed using one-way ANOVA, and post hoc analysis was performed using Dunnett's test.

[3] = tested on: Z-138 xenograft tumors; assay: Z-138 lymphoma cell line grown as a xenograft in SCID mice; assay type: in vivo, CB-17 SCID mice
Experimental: Z-138 (ATCC # CRL-3001) mantle cell lymphoma cells were obtained from ATCC. These cells were grown in IMEM medium supplemented with 10% horse serum, 1% penicillin and streptomycin, and 2 mM L-glutamine. […] Twenty-four (24) female CB-17 SCID mice (Charles River Labs strain code 236), aged 5 to 6 weeks were used. The SCID mice were inoculated in the left flank with Z-138 cells in a volume of 0.2 mL, equivalent to 4×10^7 cells per mouse. […] Mice were allocated to […] prior to the initiation of treatment based on tumor volume such that mean tumor volume in each group was within the range of 77 to 92 mm^3. […] Animals were fed with Labdiet® 5001 rodent chow and sterile water ad libitum. […] Animals with weight loss of more than 20% of their starting weight were euthanized. Mice with weight loss of more than 15% of their starting weight were not treated again until weight loss recovered to less than 5% of their starting weight. Any animals with a tumor volume of more than 1500 mm^3 were euthanized. Dosing solutions were prepared fresh on each day of dosing. […] This was prepared by dissolving the lyophilized powder in sterile water.

[4] = tested on: obese Zucker rats; assay: Food intake and body weight in Zucker rats; assay type: in vivo
Experimental: Twenty-one (21) male Zucker rats aged 7 months were allocated into 3 groups of N=7 based on equivalent body weights and food intakes. An additional group of N=7 age matched Zucker lean controls were included as a control. Body weights and food and water intakes were measured at approximately the same time each day (14:30-15:30 h). On treatment days, dosing was at 14:30-15:30 h (approximately 2 hours before lights off).
The Zucker obese and lean controls were orally treated with vehicle (10 mL/kg dose volume; 0.5% Pluronic F68 and 0.5% PVP K29/32 in water) on each weekday. Both Compound 2 (1.5 mg/kg and 3 mg/kg) groups were orally treated on each weekday (10 mL/kg dose volume; 0.5% Pluronic F68 and 0.5% PVP K29/32 in water). Prior to the treatment phase, 4 days baseline data were collected. The treatment phase was for 16 days and a washout phase of 6 days was also included.

## O=C(/C=C\n1cnc(-c2cc(C(F)(F)F)cc(C(F)(F)F)c2)n1)NNC(=O)CN1CCOCC1 [Compound 2, (Z)-3-(3-(3,5-bis(trifluoromethyl)phenyl)-1H-1,2,4-triazol-1-yl)-N′-(2-morpholinoacetyl)acrylohydrazide]
[1]; 5 mg/kg QoD orally from Day 11
  joint swelling and clinical scores compared to vehicle-treated rats: significantly reduced joint swelling
[1]; 5 mg/kg QoD, Day 28
  bone erosion in the rear paws (micro CT, BMD): significantly reduced bone erosion in the rear paws; also recorded: comparable to that of naïve animals
[2]
  body weight, food consumption and water intake: without greatly impacting the consumption of food or water
[2]; 2.5 mg/kg
  rate of reduction of disease activity index compared to vehicle: significantly greater than that observed in animals treated with vehicle; also recorded: diminished IMQ-induced disease manifestation
[3]; Compound 2 15 mg/kg PO, significant vs vehicle, severe loss limited to a few animals
  weight loss: Some weight loss was observed
[3]; Compound 2 orally, 7.5 and 15 mg/kg MWF
  antitumor effect: had antitumor effect at both 7.5 mg/kg and 15 mg/kg doses in a dose dependent manner
[4]; 3 mg/kg oral
  body weight gain versus Zucker vehicle group: lower weight gain in comparison to the Zucker control group
[4]; 1.5-3 mg/kg oral each weekday, 16 day treatment period
  daily food intake and body weight compared to Zucker control group: dose-related decrease in daily food intake and body weight; also recorded: dose dependent decrease in daily food effect

Reference: US9096543B2, “Nuclear transport modulators and uses thereof” (Karyopharm Therapeutics Inc., priority 2012, dated 2015)
